# Laboratory results as given in patent publication US7053177B1, “Random peptides that bind to gastro-intestinal tract (GIT) transport receptors and related methods” (Cytogen Corporation, priority 1997, dated 2006).
# Peptide text beside a SMILES is read from it. * marks the point of attachment. Dansyl = CN(C)c1cccc2c(S(=O)(=O)*)cccc12
# System: P100 membrane fraction of Caco-2 cells
# Assay: Dansylated peptide ELISA: relative binding of PAX2 and HAX42 peptides to P100 fractions (ratio to ZElan021)
# Details: ratio to ZElan021 = 1.00
# Protocol: The peptides and proteins were analyzed by a dansylated peptide ELISA method in which 96 well plates were coated overnight at 4° C. with 100 μl/well coating protein (normally 100 μg/ml P100 membrane fraction) in 0.05M carbonate buffer pH9.6. Nonspecific binding was blocked using 200 μl/well, 2% Marvel/PBS for 2 hours at 37° C. prior to incubation with dansylated peptides. The plates were washed three times with PBS/0.05% Tween 20 and after each subsequent incubation step. […] A buffer blank control was included to ensure that background binding to plastic was not due to the antibodies used in the assay system. […] Plates were developed using 75 μl/well Bionostics TMB substrate and incubated for approximately 10 minutes. The developing reaction was stopped using Bionostics Red Stop solution (25 μl/well), and the optical density of the plates was read at 650 nm. […]
# [1] = HAX42 peptides, 50 μg/ml, first column
# [2] = HAX42 peptides, 50 μg/ml, second column
Structure (SMILES),Binding value at 20 μg/ml (HAX42 peptides),Binding value at 50 μg/ml [1],Binding value at 50 μg/ml [2],"Binding value at 20 μg/ml (PAX2 peptides, first column)","Binding value at 50 μg/ml (Jackson Ab) (PAX2 peptides, 50 μg/ml, Jackson Ab)","Binding value at 50 μg/ml (Southern Ab) (PAX2 peptides, 50 μg/ml, Southern Ab)","Binding value at 50 μg/ml (PAX2 peptides, 50 μg/ml, first column)","Binding value at 50 μg/ml (PAX2 peptides, 50 μg/ml, second column)"
CC(C)C[C@H](NC(=O)[C@H](C)NC(=O)[C@H](Cc1c[nH]cn1)NC(=O)[C@H](CC(=O)O)NC(=O)[C@H](CO)NC(=O)[C@@H](N)CCCCNS(=O)(=O)c1cccc2c(N(C)C)cccc12)C(=O)NCC(=O)N[C@H](C(=O)N[C@@H](CC(N)=O)C(=O)N[C@@H](CC(C)C)C(=O)N[C@@H](CCCNC(=N)N)C(=O)N[C@@H](CO)C(=O)N[C@@H](CC(=O)O)C(=O)N[C@@H](CC(N)=O)C(=O)N[C@@H](C)C(=O)N[C@@H](CCCCN)C(=O)N[C@@H](CCC(=O)O)C(=O)N1CCC[C@H]1C(=O)NCC(=O)N[C@@H](CC(=O)O)C(=O)N[C@@H](Cc1ccc(O)cc1)C(=O)N[C@@H](CC(N)=O)C(=O)N[C@@H](CS)C(=O)N[C@@H](CS)C(=O)NCC(=O)N[C@@H](CC(N)=O)C(=O)NCC(=O)N[C@@H](CC(N)=O)C(=O)N[C@@H](CO)C(=O)N[C@H](C(N)=O)[C@@H](C)O)[C@@H](C)O [ZElan070] (H-K(Dansyl)SDHALGTNLRSDNAKEPGDYNCCGNGNST-NH2),0.59,0.97,0.39,–,–,–,–,–
CC(C)C[C@H](NC(=O)[C@H](CC(N)=O)NC(=O)[C@@H](N)CCCCNS(=O)(=O)c1cccc2c(N(C)C)cccc12)C(=O)N[C@@H](CCCNC(=N)N)C(=O)N[C@@H](CO)C(=O)N[C@@H](CC(=O)O)C(=O)N[C@@H](CC(N)=O)C(=O)N[C@@H](C)C(=O)N[C@@H](CCCCN)C(=O)N[C@@H](CCC(=O)O)C(=O)N1CCC[C@H]1C(=O)NCC(=O)N[C@@H](CC(=O)O)C(=O)N[C@@H](Cc1ccc(O)cc1)C(=O)N[C@@H](CC(N)=O)C(=O)N[C@@H](CS)C(=O)N[C@@H](CS)C(=O)NCC(=O)N[C@@H](CC(N)=O)C(=O)NCC(=O)N[C@@H](CC(N)=O)C(=O)N[C@@H](CO)C(=O)N[C@H](C(=O)NCC(=O)N[C@@H](CCCNC(=N)N)C(=O)N[C@@H](CCCCN)C(=O)N[C@H](C(=O)N[C@@H](Cc1ccccc1)C(=O)N[C@@H](CC(N)=O)C(=O)N[C@@H](CCCNC(=N)N)C(N)=O)C(C)C)[C@@H](C)O [ZElan071] (H-K(Dansyl)NLRSDNAKEPGDYNCCGNGNSTGRKVFNR-NH2),–,0.89,0.75,–,–,–,–,–
CC[C@H](C)[C@H](NC(=O)[C@H](C)NC(=O)[C@H](CO)NC(=O)[C@@H]1CCCN1C(=O)[C@H](CCCNC(=N)N)NC(=O)[C@H](CCCNC(=N)N)NC(=O)[C@H](CC(N)=O)NC(=O)[C@H](Cc1ccccc1)NC(=O)[C@@H](NC(=O)[C@H](CCCCN)NC(=O)[C@H](CCCNC(=N)N)NC(=O)CNC(=O)[C@@H](NC(=O)[C@H](CO)NC(=O)[C@H](CC(N)=O)NC(=O)CNC(=O)[C@H](CC(N)=O)NC(=O)CNC(=O)[C@H](CS)NC(=O)[C@H](CS)NC(=O)[C@H](CC(N)=O)NC(=O)[C@H](Cc1ccc(O)cc1)NC(=O)[C@H](CC(=O)O)NC(=O)CNC(=O)[C@@H]1CCCN1C(=O)[C@@H](N)CCCCNS(=O)(=O)c1cccc2c(N(C)C)cccc12)[C@@H](C)O)C(C)C)C(=O)N1CCC[C@H]1C(=O)N[C@H](C(N)=O)[C@@H](C)O [ZElan072] (H-K(Dansyl)PGDYNCCGNGNSTGRKVFNRRPSAIPT-NH2),0.83,0.61,0.88,–,–,–,–,–
CC(C)C[C@H](NC(=O)[C@H](CCCNC(=N)N)NC(=O)[C@H](CCCNC(=N)N)NC(=O)[C@H](CC(N)=O)NC(=O)[C@H](Cc1c[nH]cn1)NC(=O)[C@H](CO)NC(=O)[C@H](C)NC(=O)[C@@H](N)CCCCNS(=O)(=O)c1cccc2c(N(C)C)cccc12)C(=O)N[C@@H](CCCNC(=N)N)C(=O)N[C@H](C(=O)N[C@@H](CCCNC(=N)N)C(N)=O)[C@@H](C)O [ZElan073] (H-K(Dansyl)ASHNRRLRTR-NH2),–,–,–,0.07,0.66,0.49,−0.11,0.49
